The values that follow come from ChEMBL document CHEMBL1201862, “PubChem BioAssay data set” (2004).

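Interpolation was linear, between the two tested concentrations surrounding the appropriate level; five concentrations were tested over 48 hours in 96-well plates. At the GI50, growth is halved.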 Active and inactive are the calls of the source. Rule as the data show it: active = GI50 up to about 1.1 µM and inactive = higher. A value given as a limit tells only on which side of the number the result lay.

Common to all, as to experiment: inhibition of tumour cell growth, NCI panel, 48 h
Experiment [1] relates to SK-MEL-28.
In experiment [2] the test system is SNB-75.
Experiment [3] deals with HOP-62.
The subject of experiment [4] is SF-539.
Experiment [5] concerns NCI/ADR-RES.
Experiment [6] concerns SN12C.
For experiment [7], the system named is HCT-15.
Experiment [8] has as its system M14.
The subject of experiment [9] is MDA-MB-231.
Experiment [10] deals with A549.
Experiment [11] relates to SF-268.
Experiment [12] deals with MCF7.
Experiment [13] relates to NCI-H522.
In experiment [14] the test system is HCT-116.
For experiment [15], the system named is UACC-257.
The test system of experiment [16] is 786-0.
In experiment [17] the test system is CCRF-CEM.
For experiment [18], the system named is A498.
Experiment [19] relates to U-251.
The subject of experiment [20] is SW-620.

Regarding `S=C(/N=c1\sc(NCc2ccccc2)nc2sc3c(c12)CCN(N1CCc2c(sc4nc(NCc5ccccc5)s/c(=N\C(=S)NCc5ccccc5)c24)C1)C3)NCc1ccccc1`, the GI50 in experiment [1] is 63.4 µM (inactive); in experiment [2] it was 17.4 µM (inactive); in experiment [3] it was 27.5 µM (inactive); in experiment [4], 23.4 µM (inactive); in experiment [5], 37.8 µM (inactive); in [6], 16.2 µM (inactive). Further, the GI50 in experiment [7] was 22.3 µM; in experiment [8], 42.9 µM (inactive); in experiment [9], 8.32 µM (inactive); in [10] it was 27.4 µM (inactive); in [11], 27.4 µM (inactive); in experiment [12], 15.8 µM (inactive). Further, the GI50 was 37.7 µM (inactive) in [13]; 7.74 µM (inactive) in [14]; 21.5 µM (inactive) in [15]; 9.64 µM (inactive) in experiment [16]; 2.56 µM (inactive) in experiment [17]; 52 µM (inactive) in experiment [18]. Moreover, the GI50 in [19] is 10.5 µM (inactive); in experiment [20] it was 22.3 µM (inactive).

On to `COC(=O)/C=C(/C(=O)OC)c1c(C)cc2c(C)cc(C)cc(C)c1-2`, for which the GI50 is 24.3 µM (inactive) in [1]; 16.7 µM (inactive) in experiment [2]; 9.14 µM (inactive) in [3]; 9.12 µM (inactive) in experiment [4]; 9.33 µM (inactive) in experiment [5]; 14.9 µM (inactive) in experiment [6]. The GI50 in [7] is 4.56 µM; in [8] it was 8.28 µM (inactive); in experiment [9], 4.89 µM (inactive); in [10], 14.9 µM (inactive); in [11] it was 19.1 µM (inactive); in [12], 4.1 µM (inactive). Further, the GI50 is 7.48 µM (inactive) in experiment [13]; 4.26 µM (inactive) in experiment [14]; 19.3 µM (inactive) in experiment [15]; 15.2 µM (inactive) in [16]; 9.18 µM (inactive) in experiment [17]; 26.4 µM (inactive) in experiment [18]. Moreover, the GI50 in experiment [19] was 8.26 µM (inactive); in experiment [20] it was 7.18 µM (inactive).

`CCOC(=O)C(C(=O)c1ccccc1C(=O)OC)=P(c1ccccc1)(c1ccccc1)c1ccccc1`: the GI50 in [1], in experiment [2], in experiment [3], in experiment [4], in [5] and in [6] was > 10 µM (inactive) throughout. Further, the GI50 in experiment [7] was more than 10 µM; in experiment [8], > 10 µM (inactive); in experiment [9], > 10 µM (inactive); in [10], > 10 µM (inactive); in [11] it was > 10 µM (inactive); in [12] it was > 10 µM (inactive). Also, the GI50 in experiment [13], in experiment [14], in experiment [15], in [16], in experiment [17] and in experiment [18] was > 10 µM (inactive) each time. The GI50 in experiment [19] and in [20] was > 10 µM (inactive) in each case.

Consider `COc1ccccc1C(=O)N(Cc1ccccc1)c1ccc(Cl)c(C(=O)OC(C)C)c1`, for which the GI50 in experiment [1] is 41.7 µM (inactive); in [2], 19.7 µM (inactive); in experiment [3], 18.8 µM (inactive); in experiment [4] it was 30.6 µM (inactive); in experiment [5], 20.2 µM (inactive); in experiment [6], 27.6 µM (inactive). In addition, the GI50 is 19.8 µM in experiment [7]; 20.7 µM (inactive) in [8]; 25.9 µM (inactive) in experiment [9]; 19.4 µM (inactive) in [10]; 42.3 µM (inactive) in experiment [11]; 47.8 µM (inactive) in experiment [12]. In addition, the GI50 in [13] is 5.93 µM (inactive); in [14], 13.7 µM (inactive); in [15], 14.6 µM (inactive); in experiment [16], 25.9 µM (inactive); in experiment [17], 35.5 µM (inactive); in experiment [18], 37.3 µM (inactive). The GI50 was 36.6 µM (inactive) in experiment [19] and 31.8 µM (inactive) in experiment [20].

For `CC(=O)OCC1(C)C(O)CCC2(C)C1CCC1CC3CC12CCC3(O)CO` (stereo not given), the GI50 in [1] is > 100 µM (inactive); in [2], > 100 µM (inactive); in experiment [3] it was 36.5 µM (inactive); in experiment [4] it was 50.6 µM (inactive); in experiment [5] it was 37.7 µM (inactive); in experiment [6], > 100 µM (inactive). Besides, the GI50 is more than 100 µM in experiment [7]; > 100 µM (inactive) in experiment [8]; > 100 µM (inactive) in experiment [9]; 55.1 µM (inactive) in experiment [10]; > 80.2 µM (inactive) in experiment [11]; > 100 µM (inactive) in [12]. For the same molecule, the GI50 in experiment [13] is > 26.6 µM (inactive); in experiment [14], 76 µM (inactive); in experiment [15], > 100 µM (inactive); in [16] it was 44.4 µM (inactive); in experiment [17] it was 9.77 µM (inactive); in experiment [18], 0.541 µM (active). In addition, the results for the GI50 in experiment [19] and in [20] were > 100 µM (inactive) and > 95.7 µM (inactive), respectively.

Regarding `Cc1c(C(=O)c2ccc(N)c3ccccc23)c2ccccc2n1CCN1CCOCC1`, the GI50 in experiment [1] is 43.5 µM (inactive); in experiment [2], 2.62 µM (inactive); in experiment [3], 5.74 µM (inactive); in experiment [4] it was 19.7 µM (inactive); in [5], 23.4 µM (inactive); in [6], 33.8 µM (inactive). The GI50 in experiment [7] was 21 µM; in experiment [8], 24.5 µM (inactive); in experiment [9], 12.6 µM (inactive); in experiment [10], 13.1 µM (inactive); in experiment [11] it was 28.6 µM (inactive); in [12], 21.2 µM (inactive). Also, the GI50 was 6.82 µM (inactive) in [13]; 19.5 µM (inactive) in experiment [14]; 17.3 µM (inactive) in experiment [15]; 28 µM (inactive) in experiment [16]; 2.9 µM (inactive) in experiment [17]; 29.3 µM (inactive) in experiment [18]. Moreover, the GI50 in experiment [19] is 2.77 µM (inactive); in experiment [20], 26.1 µM (inactive).
